Experimental data from the supplement of paper PMC10307832.

Experiments:
Assay in all cases: relative viability (nuclei count vs DMSO), 5 days (fraction); higher = more cells survive
Shikonin + AZD7762 = compound: CC(C)=CC[C@@H](O)C1=CC(=O)c2c(O)ccc(O)c2C1=O [Shikonin] + NC(=O)Nc1cc(-c2cccc(F)c2)sc1C(=O)N[C@H]1CCCNC1 [AZD7762] (partner 0.2 µM)
In short: (§1)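 Relative viability is defined as nuclei in treated wells over nuclei in vehicle wells. Duplicate plates were run and medians reported. Lung cancer cell lines in 1536-well plates were dosed by pin tool one day after seeding, with one drug or with a fixed anchor-drug dose plus five library-drug doses (not always all listed) in √10 steps, and nuclei were counted after 5 days.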

[1] = compound: CC(C)N(CCCNC(=O)Nc1ccc(C(C)(C)C)cc1)C[C@H]1O[C@@H](n2ccc3c(N)ncnc32)[C@H](O)[C@@H]1O + Nc1ncn([C@H]2C[C@H](O)[C@@H](CO)O2)c(=O)n1 [Decitabine] (partner 2 µM)
In short: as §1

[2] = compound: CC(C)N(CCCNC(=O)Nc1ccc(C(C)(C)C)cc1)C[C@H]1O[C@@H](n2ccc3c(N)ncnc32)[C@H](O)[C@@H]1O + C[C@@H](Oc1cc(-c2cnn(C3CCNCC3)c2)cnc1N)c1c(Cl)ccc(F)c1Cl [Crizotinib] (partner 1 µM)
In short: as §1

Shikonin + Palbociclib = compound: CC(C)=CC[C@@H](O)C1=CC(=O)c2c(O)ccc(O)c2C1=O [Shikonin] + CC(=O)c1c(C)c2cnc(Nc3ccc(N4CCNCC4)cn3)nc2n(C2CCCC2)c1=O [Palbociclib] (partner 0.5 µM)
In short: as §1

Row | Cell Line | relative viability (Shikonin + AZD7762; first compound 0.01 µM) | relative viability (Shikonin + AZD7762; first compound 0.1 µM) | relative viability (Shikonin + AZD7762; first compound 0.3162 µM) | relative viability (Shikonin + AZD7762; first compound 1 µM) | relative viability ([1]; first compound 0.08 µM) | relative viability ([1]; first compound 0.253 µM) | relative viability ([1]; first compound 2.53 µM) | relative viability ([1]; first compound 8 µM) | relative viability ([2]; first compound 0.08 µM) | relative viability ([2]; first compound 0.253 µM) | relative viability ([2]; first compound 0.8 µM) | relative viability ([2]; first compound 2.53 µM) | relative viability ([2]; first compound 8 µM) | relative viability (Shikonin + Palbociclib; first compound 0.01 µM) | relative viability (Shikonin + Palbociclib; first compound 0.1 µM) | relative viability (Shikonin + Palbociclib; first compound 0.3162 µM) | relative viability (Shikonin + Palbociclib; first compound 1 µM) | relative viability ([1]; first compound 0.8 µM)
1 | PC-3 [JPC-3] | 0.825 | 0.846 | 0.755 | 1 | 0.766 | 0.726 | 0.799 | 0.864 | 0.991 | 0.994 | 0.885 | 0.977 | 0.917 | 0.59 | 0.589 | 0.538 | 0.552 | 
2 | HARA | 0.259 | 0.348 | 0.271 | 0.368 | 0.556 | 0.545 | 0.457 | 0.495 | 0.991 | 0.968 | 0.927 | 1.1 | 0.988 | 0.262 | 0.285 | 0.248 | 0.248 | 0.62
3 | NCI-H2126 | 1.03 | 1.01 | 1.11 | 1.08 | 0.568 | 0.591 | 0.551 | 0.508 | 1.01 | 0.986 | 1.06 | 0.992 | 0.959 | 0.362 | 0.408 | 0.379 | 0.349 | 0.557
4 | NCI-H1437 | 1.12 | 1.1 | 1.15 | 1.11 | 0.563 | 0.569 | 0.553 | 0.592 | 0.924 | 0.923 | 0.962 | 0.899 | 0.898 | 0.328 | 0.309 | 0.268 | 0.303 | 0.619
